In this test the test system is Pythium ultimum. The test can be described thus: In vitro growth inhibition of Pythium ultimum in PDB nutrient broth, 96-well microtiter plate. Particulars: 24° C., 48 hours. The test is classed as cell-based.

For `N.N.O=[PH](O)O` [Diammonium phosphonate], the “Observed efficacy (%)” value is listed as 50% (500 ppm) and 70% (1000 ppm).

As for `COCC(=O)N(c1c(C)cccc1C)[C@H](C)C(=O)OC` [Mefenoxam, reference compound], the “Observed efficacy (%)” value by setting is: (0.007 ppm) 0%; (0.02 ppm) 20%; (0.06 ppm) 50%.

On to Inpyrfluxam [reference compound], for which the “Observed efficacy (%)” value (20 ppm) is listed as 0%.

For the compound Monopotassium phosphite, the “Observed efficacy (%)” value worked out at 20% (125 ppm), 20% (250 ppm) and 20% (500 ppm).

(Values after patent US20260157376A1, “METHOD OF CONTROLLING, LIMITING OR PREVENTING OOMYCETES” (priority 2022, published 2026).)
